Patent US20230174561A1, “IONIC COMPOUND AND COMPOSITION THEREOF FOR HYDROPHOBIC PROTEIN EXTRACTION; AND ANTI-NONSPECIFIC PROTEIN ADSORPTION ZWITTERIONIC COMPOUND AND ELEMENT WITH ANTI-NONSPECIFIC PROTEIN ADSORPTION LAYER COMPRISING THE SAME” (priority 2021, published 2023)
Read-outs that look alike come from different tables or passages of the source. Values belong to the compound of their own block, whether it stands above or below them.

Tests used:
[1] = test system: gliadin; assay: Solubility of gliadin in ionic solutions (excess gliadin, Wheat/Gluten (Gliadin) ELISA Kit); format: physicochemical
Procedure: Gliadin is a hydrophobic protein present in gluten of wheat. Unless specifically stated, gliadin (G3375, Sigma-Aldrich; CAS No. 9007-90-3) or was used in the following tests.
First of all, ionic solutions of [DMePIm][OMs] with a concentration of 0.1 wt %, 1 wt %, 2 wt %, 5 wt % and 10 wt % in water were prepared. 3 grams (g) of gliadin (excess amount) was added into 10 mL of each [DMePIm][OMs] ionic solution, mixed homogenously and stood still for 5 min to give sample solutions for Test Example 1. All sample solutions were centrifuged at 8500 rpm for 3 min and filtered with a filter with 0.22 μm pore size. Water (0 wt %) was used as the control group. After that, Wheat/Gluten (Gliadin) ELISA Kit (Crystal chem, AOAC No. 011804) was used to determine the concentration and solubility of gliadin. Since the examination of the Wheat/Gluten (Gliadin) ELISA Kit is about 100 ppm, the gliadin concentration was determined by diluted sample solutions with at least 50-fold dilution by the corresponding ionic solution, in order to calculate the gliadin concentration of the sample solutions.
Similar with Test Example 1, except that 3 g of gliadin was added into 10 mL of 1 wt % ionic solution of [DMeIm][OMs](value “a” of Formula I is 0), [TMeIm][OMs] (a=1), [DMePrIm][OMs] (a=3), [DMePIm][OMs] (a=5), [DMeHpIm][OMs] (a=7), [DMeNnIm][OMs] (a=9) or [DMeDdIm][OMs] (a=12). […] (a=5), [DMeHpIm][OMs] (a=7), [DMeNnIm][OMs] ([…]) and [DMeDdIm][OMs] (a=12) ionic solutions, in which the corresponding groups attached on 3-position of the 1,2-dimethyl imidazolium had different carbon numbers (value “a” of Formula I) of 5, 7, 9 and 12, respectively. The [DMeDdIm][OMs]
Similar with Test Example 1, except that 3 g of gliadin was respectively added into 10 mL of 1 wt % ionic solutions of [DMePIm][Cl], [DMePIm][F], [DMePIm][OMs], [DMePIm][NO3], [DMePIm][H2PO4] and [DMePIm][HSO4].

[2] = test system: Mouse N2a neuroblastoma cells (N2a cells); assay: Biocompatibility, XTT cell survival test; format: cell-based; conditions: 0.1, 1, 2, 5 and 10 wt % in medium, 6 h, FIG. 7
Procedure: Mouse N2a neuroblastoma cells (N2a cells) were cultured and maintained in DMEM High Glucose with L-glutamine and sodium pyruvate (DMEM-HPA-P10, Capricorn Scientific) containing 10% fetal bovine serum (FBS). The N2a cells were seeded in a 6-well plate with a density of 2×10^5 cells/well overnight. Then the medium was replaced with a testing DMEM High Glucose medium containing 0.1 wt %, 1 wt %, 2 wt %, 5 wt % and 10 wt % of [DMePIm][OMs] and the cells were incubated in an incubator (37° C., 5% CO2 humidified atmosphere) for 6 h. The testing medium was removed, the cells were washed, and new DMEM High Glucose containing 10% FBS was added and incubated for another 12 h. After that, the cells were subjected to XTT test (X12223, purchased from Thermo Fisher) for determining cell survival rate.

- viscosity of ionic solution ([1]; 1 wt % ionic solution): higher viscosity
Compound: CCCCCCCCCCCC[n+]1ccn(C)c1C.CS(=O)(=O)[O-] [[DMeDdIm][OMs], [1,2-dimethyl, 3-dodecyl imidazolium][methanesulfonyl]]

- solubility of gliadin in ionic solutions with different cations [1]: higher solubility
Compound: CCCCCCC[n+]1ccn(C)c1C.CS(=O)(=O)[O-] [[DMeHpIm][OMs], [1,2-dimethyl, 3-heptyl imidazolium][methanesulfonyl]]

- solubility of gliadin in ionic solutions with different cations [1]: higher solubility
Compound: CCCCCCCCC[n+]1ccn(C)c1C.CS(=O)(=O)[O-] [[DMeNnIm][OMs], [1,2-dimethyl, 3-nonyl imidazolium][methanesulfonyl]]

- concentration of gliadin over time ([1]; 1 wt % ionic solution, 1-30 min, FIG. 2): reached its maximum solubility shortly
- solubility of gliadin in ionic solutions with different cations ([1]; 1 wt % ionic solution, FIG. 3): higher solubility
- solubility of gliadin in ionic solutions with different anions ([1]; 1 wt % ionic solution, FIG. 4): greatest solubility
Compound: CCCCC[n+]1ccn(C)c1C [[DMePIm][OMs], [1,2-dimethyl, 3-pentyl imidazolium][methanesulfonyl]]
- survival rates of cells [2]: high
